The text below walks through data of patent US20030083342A1, “Combination of organic compounds” (priority 2002, published 2003).

Read-outs that look alike come from different tables or passages of the source.

The test system of one assay is response to Ang I. Kind of assay: Response to injected Ang I in pretreated Wistar Kyoto rats. In kind it is in vivo. Particulars: Wistar Kyoto rats pretreated with (+)-fadrozole hydrochloride or valsartan 5 mg/kg/d; comparison of the two pretreatments. How it is done:
The rats are divided into 5 groups: group 1, control (n=40); Group 2, valsartan (5 mg/kg/d; n=40); Group 3, the (+)-enantiomer of the hydrochloride of fadrozole (n=30); Group 4, a combination of the (+)-enantiomer of the hydrochloride of fadrozole and valsartan (5 mg/kg/d); n=30) and Group 5, valsartan (50 mg/kg/d; n=30). The drugs are administered in drinking fluid.

The subject of another assay is pressor effect of Ang II. To be noted: Ang II at 1 mg/kg, normotensive rats, cited from earlier work.

As to `Cl.N#Cc1ccc([C@H]2CCCc3cncn32)cc1` [(+)-enantiomer of the hydrochloride of fadrozole], the “response to Ang I injected” value with response to Ang I is “similar”.
In the case of `CCCCC(=O)N(Cc1ccc(-c2ccccc2-c2nnn[nH]2)cc1)[C@H](C(=O)O)C(C)C` [valsartan, (S)-N-(1-carboxy-2-methylprop-1-yl)-N-pentanoyl-N-[2′(1H-tetrazol-5-yl)biphenyl-4-yl-methyl]amine], the “reduction of the pressor effect of Ang II” value with pressor effect of Ang II (valsartan 5 mg/kg/d) is 49%; in the assay with pressor effect of Ang II (valsartan 50 mg/kg/d), 73%. Moreover, in the assay on response to Ang I, the “response to Ang I injected” value is given as “similar”.
